The target of test [1] is T1, 11 β-HSD type 2 (Rattus norvegicus, UniProt P50233).
T1 construct: Both the kidneys and livers were homogenised on ice in PBS- sucrose buffer; tissue Harlan Olac, Bicester, Oxon, UK (rats); host or cells: rat kidney homogenate supernatant (Wistar rat)
T1 sequence (P50233 1-400): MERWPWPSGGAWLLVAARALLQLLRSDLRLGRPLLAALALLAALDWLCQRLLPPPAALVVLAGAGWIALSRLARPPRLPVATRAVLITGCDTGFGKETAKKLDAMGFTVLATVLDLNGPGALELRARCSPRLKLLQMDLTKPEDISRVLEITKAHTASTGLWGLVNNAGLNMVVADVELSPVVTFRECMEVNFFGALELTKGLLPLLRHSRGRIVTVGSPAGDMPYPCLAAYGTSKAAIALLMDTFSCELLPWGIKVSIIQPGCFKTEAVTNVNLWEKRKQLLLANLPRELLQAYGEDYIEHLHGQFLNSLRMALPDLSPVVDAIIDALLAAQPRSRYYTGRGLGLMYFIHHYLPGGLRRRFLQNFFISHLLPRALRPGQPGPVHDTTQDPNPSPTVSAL
In words: biochemical. The conditions noted are these: read-out: % […]→E ± SD, inhibitor 10 μM, rat kidney cytosol 150 μL, 60 min, 37° C., cortisol (F) to cortisone (E), vs control without inhibitor, means n=2. The procedure: Enzymes—Rat livers and rat kidneys were obtained from normal Wistar rats (Harlan Olac, Bicester, Oxon,UK). Both the kidneys and livers were homogenised on ice in PBS- sucrose buffer (1 g/10 ml) using an Ultra-Turrax. After the livers and kidneys were homogenised the homogenate was centrifuged for five minutes at 4000 rpm. The supernatant obtained was removed and stored in glass vials at −20° C. The amount of protein per μl of rat liver and kidney cytosol was determined using the Bradford method.
The same procedure was used for the 11 β-HSD type 2 assay, the conversion F to E, to determine the amount of rat kidney to be used and the incubation time.
In these assays the influence of different inhibitors on the 11 β-HSD activity both in reductive (type 1) and oxidative (type 2) directions were assessed. In the reductive direction E is the substrate and F the product and visa versa in the case of oxidation. The method described here is for the oxidative direction.
The substrate solution contained about 50,000 cpm/ml ^3H—F in PBS-sucrose and 0.5 pM F. 1 ml of the substrate solution was added to each tube, the inhibitors were also added, at a 10 μM concentration, to each tube except to the “control” and “blank” tubes. 150 μL was added to all tubes except to the blanks, this was done to correct for the amount of ^3H[…]. The tubes were incubated for 60 minutes in a mechanically shaken water bath at 37° C. […] After incubation 50 μL of recovery was added to correct for the losses made in the next steps, containing 5000 cpm/50 μL of ^14C-E and 50 μg/50 μL of unlabelled E (to visualise the spot on the TLC-plate). The aqueous mixture was then extracted with 4 ml of ether (2×30 sec cycle, vortex mix). After freezing the aqueous phase, the ether (upper) layer was decanted into smaller tubes and evaporated at 45° C. until completely dry. The residue was then re-dissolved in 6 drops of ether and transferred to a TLC-plate. The TLC-plate was developed in chloroform:methanol (9:1 v/v) solvent system, the TLC-plate ran for about 90 minutes until the solvent front had moved about 18 cm. The position of the product E was visualised under UV-light and cut out from the TLC-plate and put into scintillation vials. Radioactivity was eluted over 5 minutes with 0.5 ml methanol. 0.5 ml of PBS- sucrose and 10 ml of Ecoscint were then added and vortex mixed before counting in the scintillation counter. Before counting the samples, two total activity vials were prepared. These contained 0.5 ml of the substrate solution, 50 μL of the recovery, 0.5 ml of methanol and 10 ml of Ecoscint. These two total activity vials were needed to determine the amount of ^14C-E and ^3H—F added in the beginning to make the calculations.
To look at the percentage of inhibition four different concentrations, 1, 5, 10 and 20 μM, were used. The method for both the rat liver, type 1 the reductive, and rat kidney, type 2 the oxidative, stay the same throughout the entire experiment.
In this experiment the influence of different inhibitors on the conversion E to F and F to E was determined. The reason why inhibition in both directions was examined was to make a comparison between the inhibitors and which type of 11 β-HSD they inhibit more. Thirty-two compounds were screened for their ability to inhibit 11 β-HSD type 1 (E to F) and type 2 (F to E). […] The percent of inhibition was calculated as the percentage of decrease in radio labelled ^3H-E and ^3H—F of product formed, compared with the control activity (the tubes without an inhibitor in it). All the results calculated are means, n=2.

Test [2] concerns the target T2, 11 β-HSD type 1 (Rattus norvegicus, UniProt P16232).
T2 construct: Both the kidneys and livers were homogenised on ice in PBS- sucrose buffer; tissue Harlan Olac, Bicester, Oxon, UK (rats); host or cells: rat liver homogenate supernatant (Wistar rat)
In words: biochemical. Particulars: rat liver cytosol 25 μL, 90 min, 37° C., cortisone (E) to cortisol (F), vs control without inhibitor, means n=2; for inhibition at 10 µM: read-out: % […]→F ± SD, inhibitor 10 μM; for % INHIBITION E→F ± SD: inhibitor 10 μM. The format is biochemical.

Setting [3] is: read-out: % INHIBITION F→E ± SD.
Where [4] appears, read: read-out: % INHIBITION E→F ± SD.

Where two headings read alike, the source gives them in different places.

T2 sequence (P16232 whole entry): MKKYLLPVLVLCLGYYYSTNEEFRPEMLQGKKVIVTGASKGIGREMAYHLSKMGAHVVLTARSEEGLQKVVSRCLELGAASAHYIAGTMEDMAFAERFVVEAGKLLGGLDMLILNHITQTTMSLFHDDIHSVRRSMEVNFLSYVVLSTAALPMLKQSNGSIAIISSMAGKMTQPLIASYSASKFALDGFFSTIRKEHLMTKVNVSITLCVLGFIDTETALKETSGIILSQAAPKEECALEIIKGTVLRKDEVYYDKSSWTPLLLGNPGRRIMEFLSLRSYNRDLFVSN

With `CC1(C)C2CC[C@]3(C)C(CC=C4[C@@H]5C[C@@](C)(CO)CC[C@]5(C)CC[C@]43C)[C@@]2(C)CC[C@@H]1O` (stereo partly drawn) [STX 350], the inhibition at 10 µM in test [1] (setting [3]) came to 60.3 ± 3.99%; in test [2] (setting [4]), 13.4 ± 9.63%.
In the case of `CC(=O)C1CCC2C3CCC4=CC(=O)CC[C@]4(C)C3[C@H](O)C[C@]12C` (stereo partly drawn) [DG322B, 11-hydroxy-Progesterone], in test [2] (setting [4]), the inhibition at 10 µM stood at 32.6 ± 3.75%.
Regarding `CC1(C)C(O)CC[C@@]2(C)C1CC[C@]1(C)C2CC=C2[C@@H]3C[C@@](C)(C(=O)OCc4ccccc4)CC[C@]3(C)CC[C@]21C` (stereo partly drawn) [STX 296], the results for the inhibition at 10 µM in test [1] (setting [3]) and in test [2] (setting [4]) were 33.8 ± 15.8% and 37.7 ± 8.85%, respectively.
For `CCOC(=O)[C@H](C)NC(=O)[C@@]1(C)CC[C@]2(C)CC[C@]3(C)C(=CC(=O)[C@@H]4[C@@]5(C)CC[C@H](O)C(C)(C)C5CC[C@]43C)[C@@H]2C1` (stereo partly drawn) [STX 369, 18β-Glycyrrhetinic Acid L-alanine Ethyl Ester Amide], in that order: 35.4 ± 12.6% and 24.9 ± 2.51%.
In the case of `C[C@]12CCC(=O)C=C1CC[C@@H]1[C@@H]2[C@@H](O)C[C@@]2(C)[C@H]1CC[C@]2(O)C(=O)CO` [Cortisol, reference compound], the results for the inhibition at 10 µM in test [1] (setting [3]) and in test [2] (setting [4]) were 54.7 ± 4.24% and 49.6 ± 5.87%, respectively.
Turning to `CC1(C)C(=O)CC[C@]2(C)C3C(=O)C=C4[C@H]5C[C@@](C)(C(=O)O)CC[C@]5(C)CC[C@@]4(C)[C@]3(C)CC[C@@H]12` (stereo partly drawn) [BLE99005, 3,11-Dioxo-18α-olean-12-en-30-oic acid], the “% INHIBITION E→F ± SD” value in test [2] (10 µM) stood at 86.9 ± 0.882%. Besides, in test [2] (setting [4]), the inhibition at 10 µM is 87%.
With `CC1(C)C2CC[C@]3(C)[C@H](C(=O)C=C4[C@@H]5C[C@@](C)(C(=O)NC6CC6)CC[C@]5(C)CC[C@]43C)[C@@]2(C)CC[C@@H]1O` (stereo partly drawn) [STX 370, 18β-Glycyrrhetinic Acid Cyclopropylamide], the inhibition at 10 µM is 102.5 ± 0.22% in test [1] (setting [3]) and 89.6 ± 1.18% in test [2] (setting [4]).
`COC(=O)[C@@]1(C)CC[C@]2(C)CC[C@]3(C)C(=CC(=O)C4[C@@]5(C)CCC(=O)C(C)(C)C5CC[C@]43C)[C@@H]2C1` (stereo partly drawn) [STX194, Methyl 3-oxo-18β-glycerrhetate]: the inhibition at 10 µM was 75 ± 2.93% in test [1] (setting [3]) and 65.8 ± 5.69% in test [2] (setting [4]).
For `COC(=O)[C@@]1(C)CC[C@]2(C)CC[C@]3(C)C(=CCC4[C@@]5(C)CC[C@H](O)C(C)(C)C5CC[C@]43C)[C@@H]2C1` (stereo partly drawn) [STX 299], in that order: 19.5 ± 1.66% and 20.2 ± 1.89%.
Turning to `CC1(C)[C@@H](O)CC[C@]2(C)[C@H]3C(=O)C=C4[C@@H]5C[C@@](C)(C(=O)O)CC[C@]5(C)CC[C@@]4(C)[C@]3(C)CC[C@@H]12` [STX352, 3β-Hydroxy-11-oxo-18β,20β-olean-12-en-29-oic acid, reference compound], the inhibition at 10 µM in test [2] (setting [4]) is 85.2 ± 3.69%.
Consider `CC(=O)O[C@H]1CC[C@@]2(C)C(CC[C@]3(C)[C@@H]2C(=O)C=C2[C@@H]4C[C@@](C)(C(=O)NCc5ccccc5)CC[C@]4(C)CC[C@]23C)C1(C)C` (stereo partly drawn) [STX 367, 3β-Acetoxy-18β-Glycyrrhetinic Acid Benzylamide], for which the figures for the inhibition at 10 µM in test [1] (setting [3]) and in test [2] (setting [4]) were 27.3 ± 2.99% and 36.2 ± 3.69%, respectively.
For the compound `COC(=O)[C@@]1(C)CC[C@]2(C)CC[C@]3(C)C(=CC(=O)[C@@H]4[C@@]5(C)CC[C@H](OCc6ccccc6)C(C)(C)C5CC[C@]43C)[C@@H]2C1` (stereo partly drawn) [STX 359], the inhibition at 10 µM in test [1] (setting [3]) was 17 ± 3.5%; in test [2] (setting [4]), 17.8 ± 2.5%.
As to `CC1(C)C2CC[C@]3(C)C(C(=O)C=C4[C@@H]5C[C@@](C)(C(=O)OCc6ccccc6)CC[C@]5(C)CC[C@]43C)[C@@]2(C)CC[C@@H]1O` (stereo partly drawn) [STX 348], the inhibition at 10 µM in test [1] (setting [3]) came out at 94.77 ± 0.17%; in test [2] (setting [4]), 63.4 ± 1.45%.
In the case of `CC1(C)C2CC[C@]3(C)[C@H](C(=O)C=C4[C@@H]5C[C@@](C)(C(=O)NCc6ccccc6)CC[C@]5(C)CC[C@]43C)[C@@]2(C)CC[C@@H]1O` (stereo partly drawn) [STX 366, 18β-Glycyrrhetinic Acid Benzylamide], the inhibition at 10 µM in test [2] (setting [4]) came out at 85.2 ± 1.09%.
Regarding `CC1(C)C(=O)CC[C@@]2(C)C1CC[C@]1(C)C2C(=O)C=C2[C@@H]3C[C@@](C)(C(=O)O)CC[C@]3(C)CC[C@]21C` (stereo partly drawn) [STX 347, 3-Oxo-18β-glycerrhetinic acid], the inhibition at 10 µM in test [2] (setting [4]) was 89.37 ± 0.1%.
Regarding `CC(=O)[C@H]1CC[C@H]2[C@@H]3CC=C4C[C@@H](O)CC[C@]4(C)[C@H]3CC[C@]12C` [Pregnenolone, reference compound], the inhibition at 10 µM was 42.1 ± 0.777% in test [1] and 49.8 ± 9.36% in test [2].
Consider `CC1(C)C2CC[C@]3(C)[C@H](C(=O)C=C4[C@@H]5C[C@@](C)(C(=O)NCc6ccccn6)CC[C@]5(C)CC[C@]43C)[C@@]2(C)CC[C@@H]1O` (stereo partly drawn) [STX 371, 18β-Glycyrrhetinic Acid (pyridin-2-ylmethyl)-amide], for which the inhibition at 10 µM in test [1] (setting [3]) worked out at 93 ± 2.75%; in test [2] (setting [4]), 57.1 ± 5.6%.
For `CO[C@H]1CC[C@@]2(C)C(CC[C@]3(C)C2C(=O)C=C2[C@@H]4C[C@@](C)(C(=O)O)CC[C@]4(C)CC[C@]23C)C1(C)C` (stereo partly drawn) [STX195a, 3β-Methoxy-11-oxo-18β-glycerrhetinic acid], in that order: 90.3 ± 1.98% and 53 ± 1.02%.
Regarding `CC1(C)[C@@H](O)CC[C@]2(C)[C@H]3C(=O)C=C4[C@H]5C[C@@](C)(C(=O)O)CC[C@]5(C)CC[C@@]4(C)[C@]3(C)CC[C@@H]12` [STX353, 3β-Hydroxy-11-oxo-18α,20β-olean-12-en-29-oic acid, reference compound], the inhibition at 10 µM in test [2] (setting [4]) is 89 ± 1.49%.
Consider `CC1(C)C2CC[C@]3(C)C(CC=C4[C@@H]5C[C@@](C)(C(=O)O)CC[C@]5(C)CC[C@]43C)[C@@]2(C)CC[C@@H]1O` (stereo partly drawn) [STX122, 11-Deoxo-18β-glycerrhetinic acid], for which the inhibition at 10 µM in test [1] (setting [3]) stood at 109 ± 1.64%; in test [2] (setting [4]), 92.7 ± 1.23%.
`CC1(C)[C@@H](O)CC[C@]2(C)[C@H]3C(=O)C=C4[C@@H]5C[C@@](C)(C(=O)OCCc6ccccc6)CC[C@]5(C)CC[C@@]4(C)[C@]3(C)CC[C@@H]12` [STX197, 3β-hydroxy-11-oxo-18β-glycyrrhetinic acid phenylethyl ester]: the “% INHIBITION E→F ± SD” value in test [2] worked out at 53.0 ± 0.935%.

For the origin of these results see patent publication US20040147494A1, “Use” (priority 2001, published 2004).
